Measured values as given in paper PMC4368200, “Triclabendazole Sulfoxide Causes Stage-Dependent Embryolethality in Zebrafish and Mouse In Vitro” (PLoS ONE, 2015).
“Also recorded” adds a separate entry of the source. Read-outs that look alike come from different tables or passages of the source. Marks after values point to notes of the source that are not given here.

Experiments:
[1] = test system: mouse embryos at the one-cell stage; assay: Preimplantation whole embryo culture (preWEC); design: species or system B6CBAF1 mice; conditions: for preWEC LOAEC (lethality): GD 0 to GD 4
Experimental: Female mice (6–12 weeks old) were superovulated by intraperitoneal injections of 5 IU of pregnant mare’s serum gonadotropin (Intervet, Spain) and 5 IU of human chorionic gonadotropin (Farma-Lepori, Spain), 48 h apart, and mated with adult males (2:1). Embryos at the one-cell stage were obtained 24 h after the second injection by tearing the oviducts in Hepes-buffered Chatot Ziomek Bavister medium with 150 U/ml hyaluronidase (HCZB) to dissociate the cumulus cells. Denuded embryos were then washed in HCZB and cultured for 96 h in drops of culture medium, potassium simplex optimized medium (KSOM) under oil at 37°C and 5% CO2, with or without the compounds of study. TCBZ and TCBZSO dissolved in DMSO were diluted in KSOM medium and the final DMSO concentration in the culture medium was […]. Control embryos were cultured in the presence of […]. Embryos were observed under the stereomicroscope every 24 h to assess if they were progressing normally until the blastocyst stage or, otherwise, they were arrested in a previous developmental stage. In each observation the number of embryos at the correct developmental stage (two-cells at 24 h, four-cells at 48 h, morula at 72 h and blastocyst at 96 h) were counted.
TCBZ and TCBZSO concentration ranges for the preWEC study were selected based on the results of the ZFET. The tested concentrations for this technique were 1 μM, 3 μM and 10 μM for TCBZ studies and 3 μM, 10 μM, 30 μM and 100 μM for TCBZSO studies.

[2] = humans, cited from earlier work
[3] = test system: zebrafish embryos; assay: Zebrafish embryo test (ZFET); format: in vivo, Danio rerio; conditions: for Dysmorphogenic embryos / Morphological score: 50 hpf
Experimental: The day before the test, adult male and female zebrafish were transferred (1:1) to breeding tanks (Aquaneering, San Diego, California). Artificial plants and marbles were used as spawning substrate. Spawning and fertilization took place within 30 min after the onset of light in the morning. Eggs were collected and extensively cleaned with ISO-standard 7346 water diluted 1:5 using deionized water. Fertilized eggs were selected under a dissection stereomicroscope (Motic SMZ168, Motic China group, LTD., China). The eggs presenting overt anomalies like asymmetries, formation of vesicles or damaged membranes were discarded.
Exposure and evaluation of eggs was performed as described before with slight variations. At 2 hours post-fertilization (hpf) fertilized eggs were selected and transferred to 6-well plates (Greiner Bio-one, Germany). Ten embryos were randomly distributed into wells and filled with 5 mL of freshly prepared test solutions. TCBZ, TCBZSO, ABZ and ABZSO were dissolved in DMSO and subsequently diluted in 0.3x Danieau’s buffer to a final DMSO concentration of 0.05% (v/v). Embryos were incubated at 26 ± 1°C with a dark-light cycle of 10–14 h for 48 h. Embryolethality was determined at 8 hpf on the basis of egg coagulation, at 26 hpf by the absence of tail detachment or somites formation, and at 50 hpf by the absence of heartbeat. Developmental and teratogenic effects were assessed at 50 hpf by the total morphological score described in [32].
The working concentrations for ZFET experiments were 0.1 μM, 0.5 μM, 1 μM, 2.5 μM and 5 μM for TCBZ studies and 0.5 μM, 1 μM, 2.5 μM, 5 μM, 10 μM and 50 μM for TCBZSO. The experiments with ABZ were performed including concentrations of 0.025 μM, 0.05 μM, 0.1 μM, 0.3 μM and 0.5 μM and for ABZSO they included 1 μM, 6 μM, 12 μM, 25 μM and 50 μM.

C[S+]([O-])c1nc2cc(Oc3cccc(Cl)c3Cl)c(Cl)cc2[nH]1 (stereo not drawn) [TCBZSO, Triclabendazole sulfoxide]
Adverse effects in preimplantation embryos ([1]; 3 μM): did not induce adverse effects | Lethality 2-cells 24 h ([1]; 3 μM): 4.2% | Lethality 4-cells 48 h ([1]; 3 μM): 14.6% | Lethality Blastocyst 96 h ([1]; 3 μM): 31.3% | Lethality Morula 72 h ([1]; 3 μM): 16.7% | Lethality 2-cells 24 h ([1]; 10 μM): 24.5 ^* % | Lethality 4-cells 48 h ([1]; 10 μM): 30.6 ^* % | Lethality Blastocyst 96 h ([1]; 10 μM): 55.1 ^* % | Lethality Morula 72 h ([1]; 10 μM): 36.7 ^* % | Lethality 2-cells 24 h ([1]; 30 μM): 24.5 ^* % | Lethality 4-cells 48 h ([1]; 30 μM): 79.6 ^* % | Lethality Blastocyst 96 h ([1]; 30 μM): 98 ^* % | Lethality Morula 72 h ([1]; 30 μM): 95.9 ^* % | Lethality 2-cells 24 h ([1]; 100 μM): 100 ^* % | Lethality 4-cells 48 h ([1]; 100 μM): 100 ^* % | Lethality Blastocyst 96 h ([1]; 100 μM): 100 ^* % | Lethality Morula 72 h ([1]; 100 μM): 100 ^* % | preWEC LOAEC (lethality) [1]: 10 µM | Cmax ([2]; 10 mg/kg TCBZ, depending on concomitant food intake, reviewed by 22, 10 mg/kg, read-out: TCBZSO Cmax in plasma): 38.6 µM | Cmax ([2]; 10 mg/kg TCBZ, calculated from ref 43, read-out: TCBZSO Cmax in plasma): 26.6 µM | Lethality ([3]; 0.5 μM, 2-50 hpf): 17% | Dysmorphogenic embryos ([3]; 0.5 μM): 0% | Morphological score ([3]; 0.5 μM): 36.0 ± 0.0 | Lethality ([3]; 1 μM, 2-50 hpf): 10% | Dysmorphogenic embryos ([3]; 1 μM): 0% | Morphological score ([3]; 1 μM): 36.0 ± 0.0 | Lethality ([3]; 2.5 μM, 2-50 hpf): 20% | Dysmorphogenic embryos ([3]; 2.5 μM): 0% | Morphological score ([3]; 2.5 μM): 36.0 ± 0.0 | Lethality ([3]; 5 μM, 2-50 hpf): 7% | Dysmorphogenic embryos ([3]; 5 μM): 0% | Morphological score ([3]; 5 μM): 36.0 ± 0.0 | Lethality ([3]; 10 μM, 2-50 hpf): 35 ^* % | Dysmorphogenic embryos ([3]; 10 μM): 0% | Morphological score ([3]; 10 μM): 36.0 ± 0.0 | Lethality ([3]; 50 μM, 2-50 hpf): 100 ^* % | ZFET LOAEC dysmorphogenesis ([3]; 2-50 hpf): No dysmorphogenesis were observed; also recorded: not dysmorphogenic | ZFET LOAEC lethality ([3]; 2-50 hpf): 10 µM | ZFET NOAEC ([3]; 2-50 hpf): 5 µM | Embryolethal concentration, times lower than ABZSO concentrations killing the embryos ([3]; ZFET): five | Embryolethal concentration, times lower than ABZSO concentrations producing malformations ([3]; ZFET): 2.5 times

CSc1nc2cc(Cl)c(Oc3cccc(Cl)c3Cl)cc2[nH]1 [TCBZ, 5-chloro-6-(2,3-dichlorophenoxy)-2-(methylthio)benzimidazole]
Lethality 2-cells 24 h ([1]; 1 μM): 4.2% | Lethality 4-cells 48 h ([1]; 1 μM): 8.3% | Lethality Blastocyst 96 h ([1]; 1 μM): 18.8% | Lethality Morula 72 h ([1]; 1 μM): 8.3% | Adverse effects in preimplantation embryos ([1]; 3 μM): did not produce any significant effect | Lethality 2-cells 24 h ([1]; 3 μM): 6.3% | Lethality 4-cells 48 h ([1]; 3 μM): 6.3% | Lethality Blastocyst 96 h ([1]; 3 μM): 20.8% | Lethality Morula 72 h ([1]; 3 μM): 10.4% | Lethality 2-cells 24 h ([1]; 10 μM): 18.4 ^* % | Lethality 4-cells 48 h ([1]; 10 μM): 24.5 ^* % | Lethality Blastocyst 96 h ([1]; 10 μM): 36.7% | Lethality Morula 72 h ([1]; 10 μM): 24.5 ^* % | preWEC LOAEC (lethality) [1]: 10 µM | Lethal concentration in preimplantation embryos, times higher than in vivo relevant concentrations ([1]; preWEC): 10 times | Cmax ([2]; therapeutical dose of 10 mg/kg TCBZ, reviewed by 22, read-out: TCBZ Cmax in plasma): 1.16 µM | Frequency of dysmorphogenesis: Developmental delay ([3]; 0.1 µM): 6.7% | Frequency of dysmorphogenesis: Flexion ([3]; 0.1 µM): 3.3% | Frequency of dysmorphogenesis: Head-body pigmentation ([3]; 0.1 µM): 6.7% | Lethality ([3]; 0.1 μM, 2-50 hpf): 0% | Dysmorphogenic embryos ([3]; 0.1 μM): 6.7% | Morphological score ([3]; 0.1 μM): 34.8 ± 1.8 | Frequency of dysmorphogenesis: Cardiac oedema ([3]; 0.5 µM): 13.3% | Lethality ([3]; 0.5 μM, 2-50 hpf): 0% | Dysmorphogenic embryos ([3]; 0.5 μM): 13.3% | Morphological score ([3]; 0.5 μM): 34.8 ± 0.0 | Adverse effects in zebrafish embryos ([3]; 1 μM): did not present any adverse effects | Frequency of dysmorphogenesis: Brain necrosis ([3]; 1 μM): 10% | Frequency of dysmorphogenesis: Cardiac oedema ([3]; 1 μM): 10% | Frequency of dysmorphogenesis: Flexion ([3]; 1 μM): 6.7% | Lethality ([3]; 1 μM, 2-50 hpf): 0% | Dysmorphogenic embryos ([3]; 1 μM): 13.3% | Morphological score ([3]; 1 μM): 35.8 ± 0.4 | Frequency of dysmorphogenesis: Developmental delay ([3]; 2.5 µM): 50% | Frequency of dysmorphogenesis: Flexion ([3]; 2.5 µM): 20% | Frequency of dysmorphogenesis: Head-body pigmentation ([3]; 2.5 µM): 50% | Lethality ([3]; 2.5 μM, 2-50 hpf): 0% | Dysmorphogenic embryos ([3]; 2.5 μM): 60 ^* % | Morphological score ([3]; 2.5 μM): 33.0 ± 3.4 | Lethality ([3]; 5 μM, 2-50 hpf): 100 ^* % | ZFET LOAEC dysmorphogenesis ([3]; 2-50 hpf): 2.5 µM | ZFET LOAEC embryonic differentiation (total morphological score) ([3]; 2-50 hpf): 2.5 μM | ZFET LOAEC lethality ([3]; 2-50 hpf): 5 µM
